Source: PMC9890698 (BMC Biology, 2023)
Values joined by “and” are separate entries in the source; they are usually repeats but may differ in a detail not shown here. Equal values may be shown once.

Tests used:
Human P2Y12-R = target: T1, Human P2Y12-R (Homo sapiens, UniProt Q9H244); experiment: IP1 accumulation assay (HTRF) in HEK293T cells expressing P2Y12-R; format: cell-based; details: MRS2179 10 μM, 2 h
T1 construct: expressed in transfected cells; host or cells: HEK293T/17

HEK293T cells (pcDNA3.1) = experiment: IP1 accumulation assay (HTRF) in control HEK293T cells (pcDNA3.1); format: cell-based, Human; details: pcDNA3.1, MRS2179 10 μM, 2 h
From the text: Since Gαq protein activation is known to induce PLC activation leading to IP3 and subsequent cytosolic calcium release, we analyzed the constitutive Gαq-dependent P2Y1-R signaling by quantifying intracellular inositol monophosphate (IP1) using a monoclonal antibody-based competitive ELISA. IP1 is a downstream metabolite of IP3 that accumulates in cells following Gαq protein-coupled receptor activation, making it an ideal readout for Gαq protein-dependent signaling pathways.
Quantification of intracellular IP1 was performed using the HTRF (Homogeneous Time Resolved Fluorescence) IP1 competitive immunoassay (IP-One Tb kit. Cisbio. France) according to the manufacturer’s instructions. Briefly, 20,000 HEK293T/17 cells or 3.10^6 platelets were distributed in a 384-well white microplate (Greiner) and incubated with the indicated molecules for 30 min or 2 h at 37 °C in the presence of 50 mM of LiCl to prevent IP1 degradation. After addition of d2-labeled IP1 (acceptor) and anti-IP1-Cryptate (donor) for 1 h, the specific FRET signals were calculated by the fluorescence ratio of the acceptor and donor emission signal (665/620 nm) collected using a modified Infinite F500 (Tecan Group Ltd). Conversion of the HTRF ratio of each sample into IP1 concentrations was performed on the basis of a standard curve to determine the linear dynamic range of the assay.

[1] = test system: Gαq protein in HEK293T cells (pcDNA3.1); experiment: Gαq protein activation BRET2 assay in control HEK293T cells without receptor (pcDNA3.1 / 0 μg); format: cell-based, Human; details: pcDNA3.1, ADP 10 μM, 1 min, individual experiments
From the text: As previously described, using a BRET^2 (bioluminescence resonance energy transfer)-based assay, we directly monitored the basal Gαq protein activation by measuring the interaction between Gαq and Gγ2 subunits of the Gαqβ1γ2 heterotrimer complex. Indeed, this assay is based on the non-radiative transfer between the Renilla reniformis luciferase (RLuc8) energy donor fused to the Gαq protein subunit and the fluorescent GFP2 energy acceptor fused to Gγ2 protein subunit (Fig. 1a). […] By contrast, ligand-independent constitutive receptor activation or agonist-induced receptor activation will promote Gαq/Gγ2 subunit dissociation, thereby leading to a decrease of the basal BRET signal (Fig. 1a). […] To preclude any P2Y1-R activation by a passive release of ADP by HEK293T cells, we performed similar experiments in the presence of high concentration of apyrase (0.2U/mL) to degrade any trace of ADP in the medium (Additional File 2: Fig. S2a). Under these conditions, P2Y1-R expression still induces a marked and significant decrease of the basal BRET signal compared to control cells (pcDNA3.1), thereby supporting a P2Y1-R-dependent constitutive activation of Gαq protein. […] Of note, because P2Y1-R and AT1-R were respectively Myc- and HA-tagged and were thus detected using different primary antibodies, their expression at the cell surface cannot be compared between each other’s.
G protein activation and β-arrestin 2 recruitment were performed as previously described. […] BRET signal between RLuc8 and GFP2 was measured after addition of the luciferase substrate coelenterazine 400a (5 μM). […] BRET signal was recorded after incubation with coelenterazine h (5 μM) for 8 min. For kinetics studies, BRET signal between RLuc and Venus was recorded at 20-s intervals at basal state for the 2 first minutes and then for 5 min after ligand injection. For saturation curves (BRET^1), the expression level of Venus- or RLuc-tagged protein was determined by direct measurement of total fluorescence and luminescence respectively. Total fluorescence was first measured with an excitation filter at 485 nm and an emission filter at 520 nm. Then, the same sample was incubated for 8 minutes with 5 μM coelenterazine h and the total luminescence was measured. BRET^2 and BRET^1 readings were collected using a modified Infinite F500 (Tecan Group Ltd). The BRET^2 signal was calculated by the ratio of emission of GFP2 (510–540 nm) to RLuc8 (370–450 nm) and the BRET^1 signal by the ratio of emission of Venus (520–570 nm) to RLuc (370–480 nm). Sometimes, results are expressed as the Net BRET computed by deducting the BRET background signal (obtained in the presence of the energy donor alone) from the BRET signal (acquired from cells expressing both the energy donor and acceptor).

T1 sequence (Q9H244 whole entry): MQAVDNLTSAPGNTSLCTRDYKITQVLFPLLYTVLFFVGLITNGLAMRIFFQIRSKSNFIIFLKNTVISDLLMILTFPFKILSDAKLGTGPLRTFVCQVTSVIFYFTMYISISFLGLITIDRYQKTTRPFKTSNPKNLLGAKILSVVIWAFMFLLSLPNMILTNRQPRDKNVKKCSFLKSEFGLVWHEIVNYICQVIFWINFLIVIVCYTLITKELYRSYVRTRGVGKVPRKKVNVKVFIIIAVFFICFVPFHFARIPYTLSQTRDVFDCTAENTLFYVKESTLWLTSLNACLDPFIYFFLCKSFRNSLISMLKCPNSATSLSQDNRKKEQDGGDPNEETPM

| SMILES | IP1 concentration (Human P2Y12-R) | IP1 concentration (HEK293T cells (pcDNA3.1)) | ADP-modulated BRET [1] |
| --- | --- | --- | --- |
| CNc1ncnc2c1ncn2[C@H]1C[C@H](OP(=O)(O)O)[C@@H](COP(=O)(O)O)O1 [MRS2179] | 90.2229 nM and 91.7585 nM and 129.706 nM and 87.0301 nM and 114.326 nM | 88.9223 nM and 110.299 nM and 105.967 nM and 93.0408 nM and 138.708 nM |  |
| Nc1ncnc2c1ncn2[C@@H]1O[C@H](COP(=O)(O)OP(=O)(O)O)[C@@H](O)[C@H]1O [ADP, adenosine diphosphate] |  |  | -0.02779 and 0.00353 and 0.02201 and 0.01275 and 0.006152 and -0.007154 |
